Source: PubChem BioAssay (NCI)
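GI50 is the concentration that inhibits growth by half. At the TGI there is no net growth.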

Assays:
Test in all cases: NCI anticancer screen, dose series, 384-well format
CCRF-CEM leukemia = system: CCRF-CEM leukemia
HL-60(TB) leukemia = system: HL-60(TB) leukemia
M14 melanoma = system: M14 melanoma
ACHN renal = system: ACHN renal
MDA-MB-231 breast = system: MDA-MB-231 breast
TK-10 renal = system: TK-10 renal
MALME-3M melanoma = system: MALME-3M melanoma
NCI-H23 lung = system: NCI-H23 lung
EKVX NSCLC = system: EKVX NSCLC
SF-539 CNS = system: SF-539 CNS
OVCAR-3 ovarian = system: OVCAR-3 ovarian
SK-MEL-28 melanoma = system: SK-MEL-28 melanoma
BT-549 breast = system: BT-549 breast
MOLT-4 leukemia = system: MOLT-4 leukemia
SR leukemia = system: SR leukemia
SNB-19 CNS = system: SNB-19 CNS
SK-MEL-2 melanoma = system: SK-MEL-2 melanoma
MCF7 breast = system: MCF7 breast
NCI/ADR-RES ovarian = system: NCI/ADR-RES ovarian
DU-145 prostate = system: DU-145 prostate
OVCAR-5 ovarian = system: OVCAR-5 ovarian
CAKI-1 renal = system: CAKI-1 renal
A498 renal = system: A498 renal
NCI-H226 lung = system: NCI-H226 lung
SNB-75 CNS = system: SNB-75 CNS
SW-620 colon = system: SW-620 colon
786-0 renal = system: 786-0 renal
U251 glioblastoma = system: U251 glioblastoma
HCT-15 colon = system: HCT-15 colon
UACC-62 melanoma = system: UACC-62 melanoma
KM12 colon = system: KM12 colon
A549 NSCLC = system: A549 NSCLC
MDA-MB-435 melanoma = system: MDA-MB-435 melanoma
IGROV1 ovarian = system: IGROV1 ovarian
SF-268 CNS = system: SF-268 CNS
SK-MEL-5 melanoma = system: SK-MEL-5 melanoma
COLO 205 colon = system: COLO 205 colon
K-562 leukemia = system: K-562 leukemia
RPMI-8226 leukemia = system: RPMI-8226 leukemia
UACC-257 melanoma = system: UACC-257 melanoma
OVCAR-4 ovarian = system: OVCAR-4 ovarian
MDA-MB-468 breast = system: MDA-MB-468 breast
HOP-92 NSCLC = system: HOP-92 NSCLC
PC-3 prostate = system: PC-3 prostate
RXF 393 renal = system: RXF 393 renal
NCI-H460 NSCLC = system: NCI-H460 NSCLC
HCT-116 colon = system: HCT-116 colon
SF-295 CNS = system: SF-295 CNS
HT29 colon = system: HT29 colon
SK-OV-3 ovarian = system: SK-OV-3 ovarian
HCC-2998 colon = system: HCC-2998 colon
NCI-H322M lung = system: NCI-H322M lung
HS 578T breast = system: HS 578T breast
NCI-H522 lung = system: NCI-H522 lung
UO-31 renal = system: UO-31 renal
HOP-62 NSCLC = system: HOP-62 NSCLC
T-47D breast = system: T-47D breast
SN12C renal = system: SN12C renal
LOX IMVI melanoma = system: LOX IMVI melanoma
OVCAR-8 ovarian = system: OVCAR-8 ovarian

## NC(=O)NO
CCRF-CEM leukemia
  GI50: 76.3 µM
HL-60(TB) leukemia
  GI50: 81.9 µM

## CS(=O)(=O)c1ccc(-c2cnc(N)c(C(=O)Nc3ccccc3)n2)cc1
M14 melanoma
  GI50: 5.68 µM
  TGI: > 100 µM
ACHN renal
  GI50: 3.02 µM
  TGI: 16.1 µM
MDA-MB-231 breast
  GI50: 62.3 µM
  TGI: > 100 µM
TK-10 renal
  GI50: 2.75 µM
  TGI: 18.7 µM
MALME-3M melanoma
  GI50: 37.2 µM
  TGI: > 100 µM
NCI-H23 lung
  GI50: 3.02 µM
  TGI: 58.7 µM
EKVX NSCLC
  GI50: > 100 µM
  TGI: > 100 µM
SF-539 CNS
  GI50: 5.27 µM
  TGI: > 100 µM
OVCAR-3 ovarian
  GI50: 12.1 µM
  TGI: > 100 µM
SK-MEL-28 melanoma
  GI50: > 100 µM
  TGI: > 100 µM
BT-549 breast
  GI50: 2.6 µM
  TGI: 11.5 µM
MOLT-4 leukemia
  GI50: 1.46 µM
  TGI: 2.81 µM
SR leukemia
  GI50: 0.603 µM
  TGI: 4.57 µM
SNB-19 CNS
  GI50: 28.2 µM
  TGI: > 100 µM
SK-MEL-2 melanoma
  GI50: 5.35 µM
  TGI: 13.2 µM
MCF7 breast
  GI50: 2.78 µM
  TGI: > 100 µM
NCI/ADR-RES ovarian
  GI50: > 100 µM
  TGI: > 100 µM
DU-145 prostate
  GI50: 4.53 µM
  TGI: > 100 µM
OVCAR-5 ovarian
  GI50: 33.6 µM
  TGI: > 100 µM
CAKI-1 renal
  GI50: 5.25 µM
  TGI: 18.4 µM
A498 renal
  GI50: 2.78 µM
  TGI: 28.6 µM
NCI-H226 lung
  GI50: 46.8 µM
  TGI: > 100 µM
SNB-75 CNS
  GI50: 16.6 µM
  TGI: > 100 µM
SW-620 colon
  GI50: > 100 µM
  TGI: > 100 µM
786-0 renal
  GI50: 3.11 µM
  TGI: 65.7 µM
U251 glioblastoma
  GI50: 6.52 µM
  TGI: > 100 µM
HCT-15 colon
  GI50: 3.32 µM
  TGI: > 100 µM
UACC-62 melanoma
  GI50: 18.9 µM
  TGI: > 100 µM
KM12 colon
  GI50: 40 µM
  TGI: > 100 µM
A549 NSCLC
  GI50: 5.47 µM
  TGI: > 100 µM
MDA-MB-435 melanoma
  GI50: > 100 µM
  TGI: > 100 µM
IGROV1 ovarian
  GI50: 2.9 µM
  TGI: > 100 µM
SF-268 CNS
  GI50: > 100 µM
  TGI: > 100 µM
SK-MEL-5 melanoma
  GI50: 16.1 µM
  TGI: > 100 µM
COLO 205 colon
  GI50: 29.5 µM
  TGI: > 100 µM
K-562 leukemia
  GI50: 4.62 µM
  TGI: > 100 µM
RPMI-8226 leukemia
  GI50: 3.12 µM
  TGI: > 100 µM
UACC-257 melanoma
  GI50: > 100 µM
  TGI: > 100 µM
OVCAR-4 ovarian
  GI50: 11.9 µM
  TGI: 93 µM
MDA-MB-468 breast
  GI50: 2.6 µM
  TGI: > 100 µM
HOP-92 NSCLC
  GI50: 4.58 µM
  TGI: > 100 µM
CCRF-CEM leukemia
  GI50: 1.51 µM
  TGI: 3.01 µM
PC-3 prostate
  GI50: 15 µM
  TGI: > 100 µM
RXF 393 renal
  GI50: 6.56 µM
  TGI: 43.4 µM
NCI-H460 NSCLC
  GI50: 3.73 µM
  TGI: > 100 µM
HCT-116 colon
  GI50: > 100 µM
  TGI: > 100 µM
SF-295 CNS
  GI50: 7.75 µM
  TGI: > 100 µM
HT29 colon
  GI50: 3.76 µM
  TGI: > 100 µM
SK-OV-3 ovarian
  GI50: 3.68 µM
  TGI: 40 µM
HCC-2998 colon
  GI50: 0.543 µM
  TGI: 9.37 µM
NCI-H322M lung
  GI50: 14.9 µM
  TGI: > 100 µM
HS 578T breast
  GI50: 4.54 µM
  TGI: 49.9 µM
NCI-H522 lung
  GI50: 5.61 µM
  TGI: > 100 µM
UO-31 renal
  GI50: 6.65 µM
  TGI: 22.1 µM
HL-60(TB) leukemia
  GI50: 3.34 µM
  TGI: 9.07 µM
HOP-62 NSCLC
  GI50: 7.72 µM
  TGI: > 100 µM
T-47D breast
  GI50: > 100 µM
  TGI: > 100 µM

## C=CC(=O)N1CCN(c2nc(OC[C@@H]3CCCN3C)nc3c2CCN(c2cccc4cccc(C)c24)C3)C[C@@H]1CC#N
M14 melanoma
  GI50: 1.27 µM
  TGI: 2.53 µM
ACHN renal
  GI50: 0.35 µM
  TGI: 1.6 µM
MDA-MB-231 breast
  GI50: 0.312 µM
  TGI: 1.27 µM
TK-10 renal
  GI50: 0.505 µM
  TGI: 1.7 µM
MALME-3M melanoma
  GI50: 1.22 µM
  TGI: 2.46 µM
NCI-H23 lung
  GI50: < 0.01 µM
SF-539 CNS
  GI50: 0.644 µM
  TGI: 1.94 µM
SN12C renal
  GI50: 1.24 µM
  TGI: 2.5 µM
LOX IMVI melanoma
  GI50: 1.59 µM
  TGI: 2.95 µM
OVCAR-3 ovarian
  GI50: 0.362 µM
  TGI: 1.36 µM
SK-MEL-28 melanoma
  GI50: 1.62 µM
  TGI: 2.98 µM
BT-549 breast
  GI50: 0.265 µM
  TGI: 0.999 µM
OVCAR-8 ovarian
  GI50: 1.05 µM
  TGI: 2.24 µM
MOLT-4 leukemia
  GI50: 0.16 µM
  TGI: 0.299 µM
SR leukemia
  GI50: 0.134 µM
  TGI: 0.267 µM
SNB-19 CNS
  GI50: 1.57 µM
  TGI: 2.93 µM
SK-MEL-2 melanoma
  GI50: 0.194 µM
  TGI: 0.595 µM
MCF7 breast
  GI50: 0.834 µM
  TGI: 2.09 µM
NCI/ADR-RES ovarian
  GI50: 1.61 µM
  TGI: 2.97 µM
DU-145 prostate
  GI50: 1.4 µM
  TGI: 2.71 µM
OVCAR-5 ovarian
  GI50: 1.47 µM
  TGI: 2.8 µM
CAKI-1 renal
  GI50: 0.422 µM
  TGI: 1.43 µM
A498 renal
  GI50: 0.485 µM
  TGI: 1.7 µM
NCI-H226 lung
  GI50: 1.16 µM
  TGI: 2.39 µM
SW-620 colon
  GI50: 1.31 µM
  TGI: 2.62 µM
786-0 renal
  GI50: 0.705 µM
  TGI: 1.99 µM
U251 glioblastoma
  GI50: 1.01 µM
  TGI: 2.2 µM
HCT-15 colon
  GI50: 1.01 µM
  TGI: 2.19 µM
UACC-62 melanoma
  GI50: 0.411 µM
  TGI: 1.5 µM
KM12 colon
  GI50: 1.06 µM
  TGI: 2.26 µM
A549 NSCLC
  GI50: 1.31 µM
  TGI: 2.61 µM
MDA-MB-435 melanoma
  GI50: 1.22 µM
  TGI: 2.48 µM
IGROV1 ovarian
  GI50: 1.39 µM
  TGI: 2.7 µM
SF-268 CNS
  GI50: 0.495 µM
  TGI: 1.67 µM
SK-MEL-5 melanoma
  GI50: 1.5 µM
  TGI: 2.84 µM
COLO 205 colon
  GI50: 1.23 µM
  TGI: 2.49 µM
K-562 leukemia
  GI50: 0.918 µM
  TGI: 2.13 µM
RPMI-8226 leukemia
  GI50: 0.193 µM
  TGI: 0.377 µM
UACC-257 melanoma
  GI50: 0.833 µM
  TGI: 2.07 µM
OVCAR-4 ovarian
  GI50: 0.465 µM
  TGI: 1.69 µM
MDA-MB-468 breast
  GI50: 0.367 µM
  TGI: 1.02 µM
HOP-92 NSCLC
  GI50: 0.223 µM
  TGI: 0.687 µM
CCRF-CEM leukemia
  GI50: 0.133 µM
  TGI: 0.265 µM
PC-3 prostate
  GI50: 0.759 µM
  TGI: 1.98 µM
RXF 393 renal
  GI50: 0.189 µM
  TGI: 0.575 µM
NCI-H460 NSCLC
  GI50: 0.754 µM
  TGI: 2.06 µM
HCT-116 colon
  GI50: 0.526 µM
  TGI: 1.74 µM
SF-295 CNS
  GI50: 1.59 µM
  TGI: 2.94 µM
HT29 colon
  GI50: 1.26 µM
  TGI: 2.54 µM
SK-OV-3 ovarian
  GI50: 0.54 µM
  TGI: 1.86 µM
HCC-2998 colon
  GI50: 1.23 µM
  TGI: 2.49 µM
NCI-H322M lung
  GI50: 1.44 µM
  TGI: 2.76 µM
NCI-H522 lung
  GI50: 0.343 µM
  TGI: 1.39 µM
UO-31 renal
  GI50: 0.983 µM
  TGI: 2.15 µM
HL-60(TB) leukemia
  GI50: 0.181 µM
  TGI: 0.322 µM
HOP-62 NSCLC
  GI50: < 0.01 µM
  TGI: 1.12 µM
T-47D breast
  GI50: 0.637 µM
  TGI: 2.01 µM
